Publication PMC2642990, “The Glycogen-Binding Domain on the AMPK β Subunit Allows the Kinase to Act as a Glycogen Sensor” (Cell Metabolism, 2009)

How the values were obtained:
[1] = test system: phosphorylation of Thr-172 by LKB1; assay: phosphorylation of Thr-172 of rat liver AMPK by LKB1; format: biochemical; settings: 1 mM oligosaccharide
Method: (§1) Figure 7 Effect of Oligosaccharide Number 5, See Figure 6, on Dephosphorylation of AMPK by PP2Cα and on Phosphorylation by CaMKKβ and LKB1 (A) Effect of oligosaccharide on dephosphorylation by PP2Cα. Rat liver AMPK was incubated with PP2Cα in the presence and absence of 1 mM oligosaccharide; at various times, levels of total α subunit and phosphorylation on Thr-172 were assessed by western blotting. (B) Quantification of results as in (A); means ± SEM of two experiments. (C) Effect of oligosaccharide on phosphorylation by CaMKKβ. Rat liver AMPK was dephosphorylated using PP1, okadaic acid was added to inhibit the phosphatase, and the protein was incubated with MgATP and CaMKKβ in the presence and absence of 1 mM oligosaccharide. At various times, levels of total α subunit and of phosphorylation on Thr-172 were assessed by western blotting. (D) Quantification of results as in (C); means ± SEM (n = 2). (E) Time course of effect of oligosaccharide on phosphorylation by LKB1, performed as in (C) but with LKB1 in place of CaMKKβ. (F) Effect of oligosaccharide on phosphorylation of a synthetic peptide substrate of LKB1 (mean ± SD; n = 2). (G) Inhibition of AMPK by bovine liver glycogen, a phosphorylase limit dextrin, and a mock-treated sample. IC50 values were determined as in Figure 2A and curves generated from the best-fit parameters. […]

[2] = test system: dephosphorylation of AMPK by protein phosphatase-1; assay: dephosphorylation of AMPK by catalytic subunit of protein phosphatase-1; format: biochemical, rat; settings: data not shown
Source text: (§2) The inhibitory effects observed to this point represent allosteric inhibition, i.e., direct effects on the activity of the AMPK kinase domain of carbohydrate binding at a different site, i.e., the GBD on the β subunit. It was important to establish whether carbohydrates might also affect phosphorylation and dephosphorylation by upstream kinases and phosphatases. […] To confirm that the latter was not an effect on LKB1, we tested the effect of the oligosaccharide on phosphorylation of a synthetic peptide substrate, i.e., LKBtide ([Lizcano et al., 2004]).

LKB1 = target: T1, LKB1 (Homo sapiens, UniProt Q15831); assay: phosphorylation of synthetic peptide substrate LKBtide by LKB1; format: biochemical; settings: 1 mM oligosaccharide
T1 sequence (Q15831 1-433): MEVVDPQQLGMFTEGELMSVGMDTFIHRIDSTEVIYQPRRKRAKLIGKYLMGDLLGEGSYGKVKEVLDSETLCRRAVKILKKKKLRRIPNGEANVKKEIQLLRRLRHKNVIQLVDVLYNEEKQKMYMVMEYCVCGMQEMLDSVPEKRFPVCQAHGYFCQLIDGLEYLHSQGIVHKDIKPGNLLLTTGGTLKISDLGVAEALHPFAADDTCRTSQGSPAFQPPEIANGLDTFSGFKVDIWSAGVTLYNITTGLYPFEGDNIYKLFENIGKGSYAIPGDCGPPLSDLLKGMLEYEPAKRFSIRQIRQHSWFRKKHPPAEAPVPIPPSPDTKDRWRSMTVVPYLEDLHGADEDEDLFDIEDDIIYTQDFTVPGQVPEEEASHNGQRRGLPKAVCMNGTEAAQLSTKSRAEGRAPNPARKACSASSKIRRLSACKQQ
T1 sequence (Q7RTN6 1-431 partner): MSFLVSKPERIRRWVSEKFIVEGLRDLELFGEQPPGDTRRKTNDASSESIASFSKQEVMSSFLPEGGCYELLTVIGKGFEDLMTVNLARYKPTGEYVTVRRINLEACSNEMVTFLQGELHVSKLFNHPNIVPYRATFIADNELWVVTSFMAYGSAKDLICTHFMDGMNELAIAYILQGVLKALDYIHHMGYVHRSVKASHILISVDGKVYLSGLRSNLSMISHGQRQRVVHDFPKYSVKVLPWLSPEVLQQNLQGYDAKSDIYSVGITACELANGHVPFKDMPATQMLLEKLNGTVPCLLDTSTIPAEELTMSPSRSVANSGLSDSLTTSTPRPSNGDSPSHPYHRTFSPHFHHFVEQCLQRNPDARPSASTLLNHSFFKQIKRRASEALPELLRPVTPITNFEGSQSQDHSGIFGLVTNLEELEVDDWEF
T1 sequence (Q9Y376 1-341 partner): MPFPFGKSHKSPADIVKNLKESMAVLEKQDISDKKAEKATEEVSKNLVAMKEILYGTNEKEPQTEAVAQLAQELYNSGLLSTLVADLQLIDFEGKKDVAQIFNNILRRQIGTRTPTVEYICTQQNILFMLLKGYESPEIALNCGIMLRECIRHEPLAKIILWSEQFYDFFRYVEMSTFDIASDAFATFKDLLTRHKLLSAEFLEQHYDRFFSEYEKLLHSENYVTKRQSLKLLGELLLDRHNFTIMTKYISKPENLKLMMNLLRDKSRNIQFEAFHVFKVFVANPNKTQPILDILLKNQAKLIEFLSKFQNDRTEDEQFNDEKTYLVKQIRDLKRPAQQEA
Source text: as §2
Figure 7 Effect of Oligosaccharide Number 5, See Figure 6, on Dephosphorylation of AMPK by PP2Cα and on Phosphorylation by CaMKKβ and LKB1 (A) Effect of oligosaccharide on dephosphorylation by PP2Cα. Rat liver AMPK was incubated with PP2Cα in the presence and absence of 1 mM oligosaccharide; at various times, levels of total α subunit and phosphorylation on Thr-172 were assessed by western blotting. (B) Quantification of results as in (A); means ± SEM of two experiments. (C) Effect of oligosaccharide on phosphorylation by CaMKKβ. […] At various times, levels of total α subunit and of phosphorylation on Thr-172 were assessed by western blotting. (D) Quantification of results as in (C); means ± SEM (n = 2). […] IC50 values were determined as in Figure 2A and curves generated from the best-fit parameters. […]

[3] = test system: dephosphorylation of purified rat liver AMPK by protein phosphatase-2Cα (PPM1A); assay: dephosphorylation of rat liver AMPK by PP2Cα, western blotting of pThr-172; format: biochemical; settings: 1 mM oligosaccharide
Method: as §1

[4] = test system: phosphorylation of Thr-172 by CaMKKβ; assay: phosphorylation of Thr-172 of rat liver AMPK by CaMKKβ; format: biochemical; settings: 1 mM oligosaccharide
Method: as §1

effect on dephosphorylation by protein phosphatase-1 [2]: negative results | inhibition of LKBtide phosphorylation (LKB1): no significant inhibition
SMILES: CO[C@H]1O[C@H](CO[C@H]2O[C@H](CO)[C@@H](O[C@H]3O[C@H](CO)[C@@H](O)[C@H](O)[C@H]3O)[C@H](O)[C@H]2O)[C@@H](O)[C@H](O)[C@H]1O [Oligosaccharide 5, Glcα1→4Glcα1→6Glcα-OMe]
extent of inhibition of phosphorylation of the rat liver αβγ complex by LKB1 ([1]; Figure 7E): essentially complete | inhibition of phosphorylation of Thr-172 by LKB1 ([1]; time course): marked inhibition | effect on dephosphorylation by PP2Cα [3]: no significant effect | inhibition of phosphorylation of Thr-172 by CaMKKβ [4]: marked inhibition
